The text below walks through data of publication PMC4207410, “Clicked Cinnamic/Caffeic Esters and Amides as Radical Scavengers and 5-Lipoxygenase Inhibitors” (International Journal of Medicinal Chemistry, 2014).

Data set [1] addresses T1, 5-LO (Homo sapiens, UniProt P09917).
T1 sequence (P09917 1-674): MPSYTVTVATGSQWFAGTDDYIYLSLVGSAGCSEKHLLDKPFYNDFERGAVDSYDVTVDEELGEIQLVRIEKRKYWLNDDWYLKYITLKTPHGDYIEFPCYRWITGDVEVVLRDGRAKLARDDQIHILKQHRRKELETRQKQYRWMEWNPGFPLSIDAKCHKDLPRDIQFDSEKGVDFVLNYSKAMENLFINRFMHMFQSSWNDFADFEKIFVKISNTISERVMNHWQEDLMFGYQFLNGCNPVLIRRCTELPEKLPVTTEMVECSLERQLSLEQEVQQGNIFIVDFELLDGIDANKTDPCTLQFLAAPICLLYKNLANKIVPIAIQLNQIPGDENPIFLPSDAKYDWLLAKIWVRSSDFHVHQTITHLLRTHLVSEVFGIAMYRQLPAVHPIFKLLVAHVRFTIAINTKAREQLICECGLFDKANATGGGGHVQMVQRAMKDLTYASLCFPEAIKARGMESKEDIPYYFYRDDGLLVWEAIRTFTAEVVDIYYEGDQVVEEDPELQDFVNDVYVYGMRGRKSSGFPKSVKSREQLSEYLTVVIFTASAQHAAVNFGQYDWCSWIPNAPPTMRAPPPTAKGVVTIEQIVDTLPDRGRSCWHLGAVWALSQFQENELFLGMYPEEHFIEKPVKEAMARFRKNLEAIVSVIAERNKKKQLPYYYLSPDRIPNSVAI
The data set can be described thus: 5-LO products biosynthesis assay in whole HEK293 cells stably transfected with 5-LO and FLAP. The format is cell-based. Also noted: expressed in transfected cells. To be noted: for potency relative to Zileuton (1) in HEK293 cells: comparison of IC50 values; for 5-LO inhibition in whole HEK293 cells (in words): 1 μM. The text has this:
HEK293 cells were cotransfected with a pcDNA3.1 vector expressing 5-LO and a pBUDCE4.1 vector expressing 5-LO activating protein (FLAP) using Polyfect reagent (QIAGEN, Mississauga, ON, Canada) according to the manufacturer's protocol. Stable transfections of HEK293 cells were obtained following cell culture in the presence of Geneticin and Zeocin (Invitrogen, Burlington, ON, Canada). The resulting stable double transfectants were propagated in culture and aliquots were frozen. Once thawed for a series of experiments, each aliquot of cells is cultured for a maximum of 6 weeks before being discarded.
For cell stimulation of 5-LO products, transfected HEK293 cells were collected following trypsinization, washed and the cell pellet was resuspended in Hank's balanced salt solution (HBSS) (Lonza, Walkersville, MD) containing 1.6 mM CaCl2 at a concentration of 5 × 10^5 cells mL^−1. Cells were preincubated with each compound at the indicated concentration for 5 min at 37°C. Cells were then stimulated for 15 minutes at 37°C with the addition of 10 μM calcium ionophore A23187 (Sigma-Aldrich, Oakville, ON, Canada) and 10 μM arachidonic acid (Cayman Chemical, Ann Arbor, MI). Stimulations were stopped and processed on RP-HPLC as described previously. Data are expressed as means ± SEM of 3 independent experiments, each performed in duplicate (Figures 2 and 3).

Data set [2] has as its target T1, 5-LO. The data set can be described thus: 5-LO products biosynthesis assay in thapsigargin-stimulated human PMNL. The format is cell-based. Details: 5-LO is highly expressed in PMNL; endogenous in cells; host or cells: human PMNL from peripheral blood. To be noted: for potency relative to Zileuton (1) in human PMNL: comparison of IC50 values, thapsigargin-stimulated human PMNL; for IC50: read-out: Human PMNL IC50 (μM) [SD]. The protocol: Human PMNL were prepared from peripheral blood as described and were suspended in HBSS containing 1.6 mM CaCl2 (10^7 cells/mL) and preincubated with compounds for 5 min at 37°C in the presence of 1 U/mL of adenosine deaminase (Sigma-Aldrich, Oakville, ON, Canada). Cells were then stimulated for 15 min at 37°C with 1 μM thapsigargin (Sigma-Aldrich). Reactions were stopped by the addition of 0.5 volume of cold MeOH : CH3CN (1 : 1) and 50 ng of PGB2 as internal standard and samples were stored at −20°C until processing on octadecyl (C18) columns and RP-HPLC analysis as indicated above. Data are expressed as means ± SEM of 3 independent experiments, each performed in duplicate (Figures 4 and 5).
5-LO is highly expressed in PMNL and these cells are important producers of LTB4 [28, 32].

The nature of data set [3]: Antiradical activity assay (DPPH radical scavenging). To be noted: DPPH in ethanol, 30 min in the dark at room temperature, absorbance 520 nm; mean [SD] of 2 experiments. The protocol:
The radical scavenging activity of test compounds was measured as previously described using 2,2-diphenyl-1-picrylhydrazyl (DPPH) as a stable radical with slight modifications. Particular care was taken in the preparation of the control (DPPH reagent + ethanol as a diluent without test compounds). Controls with O.D. of 0.350-0.360 at 520 nm were deemed as acceptable to avoid variations in IC50 calculations. 1 mL of DPPH in ethanol ([…]) was mixed with 1 mL of the test compounds at the indicated concentrations or their diluent (ethanol). Each mixture was then shaken vigorously and held in the dark for 30 min at room temperature. The absorbance of DPPH at 520 nm was then measured. The radical scavenging activity was expressed in terms of % inhibition of DPPH absorbance: (1) % Inhibition=[(Acontrol−Atest)/(Acontrol)] ×100, where A control is the absorbance of the control (DPPH solution without test compound) and A test is the absorbance of the test sample (DPPH solution plus compound). Data are expressed as means ± SD of 2 independent experiments, each performed in triplicate (Table 1). IC50 values were calculated from a sigmoidal concentration-response curve fitting model with a variable slope on GraphPad Prism 5 software (GraphPad software, San Diego, California).
Radical scavenging activities of analogous cinnamoyl esters 8a–h, cinnamoyl amides 9a–h, caffeoyl esters 15a–h, and caffeoyl amides 16a–h were assayed using 2,2-diphenyl-1-picrylhydrazyl (DPPH) as a stable radical and are expressed as IC50 concentrations in Table 1.

For data set [4], the target named is T1, 5-LO. Details: expressed in transfected cells; method as in PMID 19152786. To be noted: 10 μM; cited from earlier work.

Take `Cc1ccc(-c2cn(CCNC(=O)/C=C/c3ccc(O)c(O)c3)nn2)cc1` [16f]: the melting point (in general, the temperature, or range, at which the solid turns liquid) was 220 °C (dec.). For the same compound, on 5-LO [1], the “potency relative to Zileuton (1) in HEK293 cells” value is “equipotent to Zileuton” and the “5-LO inhibition in whole HEK293 cells (in words)” value is “no significant 5-LO inhibitory activity”. On 5-LO [2], the “potency relative to Zileuton (1) in human PMNL” value is reported as “less active than Zileuton” and the IC50 (usually the concentration at which inhibition is half-maximal) amounted to 8.2 µM. Also, the IC50 in data set [3] worked out at 13 µM.
For `O=C(/C=C/c1ccc(O)c(O)c1)NCCn1cc(-c2ccc(F)cc2)nn1` [16g], the melting point is 226 °C (dec.). Also, on 5-LO [1], the “potency relative to Zileuton (1) in HEK293 cells” value is listed as “equipotent to Zileuton” and the “5-LO inhibition in whole HEK293 cells (in words)” value is “no significant 5-LO inhibitory activity”. In addition, at 5-LO [2], the “potency relative to Zileuton (1) in human PMNL” value is “less active than Zileuton” and the IC50 came to 8.8 µM. In data set [3], this compound yielded an IC50 of 12 µM.
In the case of `O=C(/C=C/c1ccccc1)OCCn1cc(COC(=O)/C=C/c2ccc(O)c(O)c2)nn1` [compound 4, reference compound], at 5-LO [1], the “5-LO inhibition in whole HEK293 cells (in words)” value is “not significantly different than the control”. At 5-LO [2] (stimulated human PMNL, 1 μM), the “5-LO inhibition in stimulated human PMNL (in words)” value is on record as “roughly equipotent with Zileuton”. The “5-LO inhibition in whole cells” value on 5-LO [4] is recorded as “near complete 5-LO inhibition”. The compound also displayed an IC50 in data set [3] of 13.4 µM.
